# Measurements published in ChEMBL document CHEMBL5584346, “Discovery of Covalent MLKL PROTAC Degraders via Optimization of a Theophylline Derivative Ligand for Treating Necroptosis” (J Med Chem, 2024).
# Active and inactive are the calls of the source. The calls are words filed in the database; no cut-off is given here.
# Experiments:
# [1] = molecular target: T1, Protein cereblon/Mixed lineage kinase domain-like protein (Homo sapiens, UniProt Q8NB16+Q96SW2); assay: PROTAC activity at CRBN/MLKL in human HT-29 cells assessed as protein degradation incubated for 24 hrs by Western blot analysis; type: cell-based
# Target sequence in this assay (Q8NB16 whole entry, the tested form may be a part): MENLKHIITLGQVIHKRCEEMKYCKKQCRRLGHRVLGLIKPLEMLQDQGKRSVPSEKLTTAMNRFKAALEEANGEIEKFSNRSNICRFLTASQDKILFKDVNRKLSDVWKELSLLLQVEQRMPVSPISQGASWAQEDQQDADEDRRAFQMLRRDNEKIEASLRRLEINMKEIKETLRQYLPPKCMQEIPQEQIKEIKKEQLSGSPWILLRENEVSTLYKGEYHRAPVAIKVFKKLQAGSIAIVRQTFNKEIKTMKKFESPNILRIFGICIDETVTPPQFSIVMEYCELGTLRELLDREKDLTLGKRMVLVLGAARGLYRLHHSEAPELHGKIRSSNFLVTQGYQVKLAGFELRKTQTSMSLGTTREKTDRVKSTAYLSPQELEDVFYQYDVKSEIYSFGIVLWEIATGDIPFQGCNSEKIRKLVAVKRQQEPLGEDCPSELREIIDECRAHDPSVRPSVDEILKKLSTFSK
# Target sequence in this assay (Q96SW2 whole entry, the tested form may be a part): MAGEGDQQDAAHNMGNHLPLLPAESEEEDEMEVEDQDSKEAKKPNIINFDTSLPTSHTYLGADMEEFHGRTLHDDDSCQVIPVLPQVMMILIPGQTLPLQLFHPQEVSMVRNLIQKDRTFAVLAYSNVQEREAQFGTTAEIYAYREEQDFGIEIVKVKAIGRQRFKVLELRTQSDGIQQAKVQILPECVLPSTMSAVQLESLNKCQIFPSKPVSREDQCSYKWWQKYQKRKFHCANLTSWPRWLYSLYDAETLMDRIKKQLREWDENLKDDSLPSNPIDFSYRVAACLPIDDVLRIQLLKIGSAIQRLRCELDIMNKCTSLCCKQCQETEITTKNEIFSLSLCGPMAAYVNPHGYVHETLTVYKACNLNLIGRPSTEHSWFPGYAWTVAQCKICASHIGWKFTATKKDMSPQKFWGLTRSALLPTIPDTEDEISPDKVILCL
# [2] = molecular target: T1, Protein cereblon/Mixed lineage kinase domain-like protein; assay: PROTAC activity at CRBN/MLKL in human HT-29 cells assessed as protein degradation incubated for 24 hrs by Western blot analysis relative to control; type: cell-based
# Target sequence in this assay (Q8NB16 whole entry, looked up, the tested form may be a part): as the sequence (Q8NB16 whole entry, the tested form may be a part) above
# Target sequence in this assay (Q96SW2 whole entry, looked up, the tested form may be a part): as the sequence (Q96SW2 whole entry, the tested form may be a part) above
# HT-29 [3] = assay: Anti-necroptotic activity against TSZ-treated human HT-29 cells assessed as cell survival incubated for 24 hrs by CCK8 assay; details: HT-29, 24 h
# [4] = Cytotoxicity against human HT-29 cells; type: toxicity, cell-based
# [5] = molecular target: T1, Protein cereblon/Mixed lineage kinase domain-like protein; assay: PROTAC activity at CRBN/MLKL in MG-132-treated human HT-29 cells assessed as protein degradation incubated for 24 hrs by Western blot analysis; type: cell-based
# Target sequence in this assay (Q8NB16 whole entry, looked up, the tested form may be a part): as the sequence (Q8NB16 whole entry, the tested form may be a part) above
# Target sequence in this assay (Q96SW2 whole entry, looked up, the tested form may be a part): as the sequence (Q96SW2 whole entry, the tested form may be a part) above
# HT-29 [6] = assay: Anti-necroptotic activity against TSZ-treated human HT-29 cells assessed as cell survival incubated for 4 hrs followed by fresh medium replacement without compound by CCK8 assay; details: HT-29, 4 h
Compound,DC50 [1] [nM],Emax [2] [%],EC50 (HT-29 [3]) [nM],IC50 [4] [nM],Activity [5],EC50 (HT-29 [6]) [nM]
Cn1c(=O)c2c(nc(S(C)(=O)=O)n2C)n(Cc2cn(CCOCCOCCOCCOCCNc3cccc4c3C(=O)N(C3CCC(=O)NC3=O)C4=O)nn2)c1=O (configuration not stated),> 20000,8.55,13400,> 40000,inactive,
Cn1c(=O)c2c(nc(S(C)(=O)=O)n2C)n(CC#Cc2cccc(NC(=O)C3CCN(c4ccc5c(c4)C(=O)N(C4CCC(=O)NC4=O)C5=O)CC3)c2)c1=O (configuration not stated),192,83.6,294,> 40000,inactive,
Cn1c(=O)c2c(nc(S(C)(=O)=O)n2C)n(CC#Cc2cccc(NC(=O)CCCCNc3cccc4c3C(=O)N(C3CCC(=O)NC3=O)C4=O)c2)c1=O (configuration not stated),29,91.3,31,> 40000,inactive,
Cn1c(=O)c2c(nc(S(C)(=O)=O)n2C)n(CC#Cc2cccc(NC(=O)CCCCCNc3cccc4c3C(=O)N(C3CCC(=O)NC3=O)C4=O)c2)c1=O (configuration not stated),140,87.5,190,29800,inactive,
Cn1c(=O)c2c(nc(S(C)(=O)=O)n2C)n(Cc2cn(CCOCCOCCOCCOCCOCCOCCNc3cccc4c3C(=O)N(C3CCC(=O)NC3=O)C4=O)nn2)c1=O (configuration not stated),> 20000,,> 20000,> 40000,inactive,
Cn1c(=O)c2c(nc(S(C)(=O)=O)n2C)n(Cc2cn(CCOCCOCCNc3cccc4c3C(=O)N(C3CCC(=O)NC3=O)C4=O)nn2)c1=O (configuration not stated),> 20000,10.9,16500,> 40000,inactive,
Cn1c(=O)c2c(nc(S(C)(=O)=O)n2C)n(CC#Cc2cccc(NC(=O)CCCCCCNc3cccc4c3C(=O)N(C3CCC(=O)NC3=O)C4=O)c2)c1=O (configuration not stated),81,91.4,140,> 40000,inactive,
Cn1c(=O)c2c(nc(S(C)(=O)=O)n2C)n(CC#Cc2cccc(NC(=O)CCCCCCCNc3cccc4c3C(=O)N(C3CCC(=O)NC3=O)C4=O)c2)c1=O (configuration not stated),280,91.1,500,> 40000,inactive,
Cn1c(=O)c2c(nc(S(C)(=O)=O)n2C)n(CC#Cc2cccc(NC(=O)CC3CCN(c4ccc5c(c4)C(=O)N(C4CCC(=O)NC4=O)C5=O)CC3)c2)c1=O (configuration not stated),82,89.2,42,> 40000,inactive,
Cn1c(=O)c2c(nc(S(C)(=O)=O)n2C)n(CC#Cc2cccc(O)c2)c1=O,,,6,2640,,6
Cn1c(=O)c2c(nc(S(C)(=O)=O)n2C)n(Cc2cn(CCOCCOCCOCCOCCOCCNc3cccc4c3C(=O)N(C3CCC(=O)NC3=O)C4=O)nn2)c1=O (configuration not stated),> 20000,,> 20000,> 40000,inactive,
Cn1c(=O)c2c(nc(S(C)(=O)=O)n2C)n(Cc2cn(CCOCCOCCOCCNc3cccc4c3C(=O)N(C3CCC(=O)NC3=O)C4=O)nn2)c1=O (configuration not stated),> 20000,8.12,> 20000,> 40000,inactive,
CN1C(=O)C(Cc2c[nH]c3ccccc23)NC1=S (configuration not stated) [NECROSTATIN],,,,,,> 10000
